Data reported in patent US6781033B2, “Method for the transformation of plant cell plastids” (Monsanto Technology LLC, priority 2000, dated 2004).

Legend:
[1] = tested on: tobacco leaf plant cultures; assay: Visual appearance of tobacco leaf cultures on drug-containing medium; format: cell-based, Nicotiana tabacum cv Petit Havana
Method: (§1) Wild-type plants of Nicotiana tabacum cv Petit Havana were propagated in sterile hormone free MS medium (Murashige and Skoog (1962) Physiol. Plant. 15,473-497) supplemented with B5 vitamins in Phytatrays or sundae cups with a 16-hour photoperiod at 24° C. Leaf sections were aseptically removed and placed into new plant regeneration medium containing various concentrations of glyphosate, spectinomycin and phospinothricin. The leaf material was collected at 1-week and 4-week time points and prepared for electron microscopic observation of plastid ultrastructure. As a control, wild-type leaf sections were exposed to the initially plastid non-lethal antibiotic, spectinomycin, under identical conditions, or to medium without any drug.

[2] = tested on: wild-type plant cell plastids of tobacco leaf tissue; assay: Electron microscopic analysis of plastid ultrastructure in tobacco leaf tissue cultured on drug-containing medium; format: cell-based, Nicotiana tabacum cv Petit Havana
Method: as §1
Cultured tobacco leaf pieces 1 mm^2 were fixed in 4% glutaraldehyde in 0.1 M sodium cacodylate buffer, pH 7.2 for 3 hours, with the first 30 minutes under vacuum. The tissue was further fixed in 1% osmium tetroxide in the above buffer for 90 minutes and stained with 1% aqueous uranyl acetate for 2 hours. Ethanol and propylene oxide were used to dehydrate the tissue prior to infiltration with a 1:1 mixture of Spurr's:EMbed 812 resin. The resin was polymerized at 60° C. for 48 hours. The resulting blocks were sectioned on a Leica Ultracut E microtome. Sections 80 nm thick were picked up on formvar/carbon-coated copper slot grids. The grids were stained with uranyl acetate and lead citrate in a LKB Ultrastainer and examined with a JEOL 1200 transmission electron microscope. All reagents were obtained from Electron Microscopy Sciences, Fort Washington, Pa.
Tobacco leaf tissue was also analyzed on medium containing lower concentrations of glyphosate. […] Cultured tissue was prepared for electron microscopy as described above.
To test the general effect of herbicides on plastid morphology, we examined tobacco leaf cultures that were grown in the presence of phosphinothricin (PPT, active ingredient in BASTA herbicide) at 4 mg/L, the concentration normally used for nuclear transformation. Leaves from healthy, tobacco plants at the same developmental stage were cut into about 5 mm×5 mm sections and placed on MS/B5 medium with 3% sucrose, 1 mg/L BAP, 0.1 mg/L NAA and 4 mg/L phosphinothricin for the 3, 7 or 12 days. The leaf sections were then fixed and processed for TEM analysis.

[3] = tested on: bombarded tobacco leaf explants; assay: Direct selection of bombarded tobacco leaf explants on lethal level of PPT; format: cell-based, Nicotiana tabacum cv. Havana; details: 4 mg/L PPT, leaves bombarded with pMON53159
Method: Dark green, round leaves are cut, preferably from the middle of the shoots, from 3-6 week old Nicotiana tabacum cv. Havana that have been maintained in vitro on hormone-free MS medium (Murashige and Skoog, (1962) Physiol Plant. 15, 473-497) supplemented with B5 vitamins in Phytatrays or sundae cups with a 16-hour photoperiod at 24° C. Each cut leaf is then placed adaxial side up on sterile filter paper over tobacco shoot regeneration medium (TSO medium: MS salts, 1 mg/L N^6-benzyladenine, 0.1 mg/L 1-naphthaleneacetic acid, 1 mg/L thiamine, 100 mg/L inositol, 7 g/L agar pH 5.8 and 30 g/L sucrose). Leaves are preferably placed in the center of the plate with as much contact with the medium as possible. The plates are preferably prepared immediately prior to use but may be prepared up to a day before transformation by particle bombardment by wrapping in plastic bags and storing at 24° C. overnight.
Plates containing the leaf samples are placed on the second shelf from the bottom of the vacuum chamber and bombarded using the 1100 p.s.i. rupture disk. After bombardment, petri plates containing the leaf samples are wrapped in plastic bags and incubated at 24° C. for 48 hours as a delay period prior to phase one culturing.
Direct selection of phosphinothricin (PPT) resistant transformants on lethal levels of PPT using plasmid pMON53159 carrying the bar gene alone were unsuccessful. […]

Row | SMILES | visual effect on plant cultures ([1]; after 1 week) | visual effect on plant cultures ([1]; after 4 weeks, spectinomycin) | plastid ultrastructure (TEM) ([2]; 500 mg/L spectinomycin, four weeks) | plastid ultrastructure (TEM) ([2]; 500 mg/L spectinomycin, one week) | appearance of explants under direct selection [3] | plastid ultrastructure (TEM) ([2]; 4 mg/L phosphinothricin, 3 days) | plastid ultrastructure (TEM) ([2]; 4 mg/L phosphinothricin, 7 days) | plastid ultrastructure (TEM) ([2]; 4 mg/L phosphinothricin, 12 days) | visual effect on plant cultures ([1]; after 4 weeks, lower concentrations of glyphosate) | plastoglobuli diameter ([2]; 1 μM glyphosate, 7 days) | plastid ultrastructure (TEM) ([2]; 1 μM glyphosate, 7 days, TSO medium) | plastid ultrastructure (TEM) ([2]; 5 μM glyphosate, 7 days) | plastid ultrastructure (TEM) ([2]; 10 μM glyphosate, 7 days) | plastid ultrastructure (TEM) ([2]; 20 μM glyphosate, 3 days) | plastid ultrastructure (TEM) ([2]; 20 μM glyphosate, 7 days) | plastid ultrastructure (TEM) ([2]; 50 μM glyphosate, four weeks) | plastid ultrastructure (TEM) ([2]; 50 μM glyphosate, one week) | plastid ultrastructure (TEM) ([2]; 200 μM glyphosate, four weeks) | plastid ultrastructure (TEM) ([2]; 200 μM glyphosate, one week)
1 | CN[C@@H]1[C@H](O)[C@H](NC)[C@H]2O[C@@]3(O)C(=O)C[C@@H](C)O[C@H]3O[C@@H]2[C@H]1O [spectinomycin] | minimal effect on plant cultures visually | tissue is completely bleached | plastids internal membranes have broken down almost completely and become vacuolated | plastids look relatively normal |  |  |  |  |  |  |  |  |  |  |  |  |  |  | 
2 | CP(=O)(O)CC[C@H](N)C(=O)O [PPT, phosphinothricin] |  |  |  |  | bleached and demonstrated little or no cell expansion | Thylakoid membranes are completely absent | even more dramatic, with oil bodies accumulated in the organelles | even more dramatic, with oil bodies accumulated in the organelles |  |  |  |  |  |  |  |  |  |  | 
3 | O=C(O)CNCP(=O)(O)O [glyphosate] | minimal effect visually on plant cultures |  |  |  |  |  |  |  | begin to form shoot primordia indicating recovery of the tissue | approximately 0.25 μm | typical morphology of metabolically active photosynthetic plastids | normal in appearance | normal in appearance | chloroplasts are beginning to show morphological damage | thylakoid membrane system is severely damaged | plastids appear to have recovered or adapted to some degree | reticulate network of thylakoid membranes has disappeared | completely devoid of internal structure | damage to plastid structure is occurring rapidly
